Patent US8614333B2, “Acenaphtho heterocyclic compound and application thereof” (Dalian University of Technology, priority 2010, dated 2013)

Columns and labels:
Bcl-2 protein = Bcl-2 protein (Homo sapiens, UniProt P10415); test: ELISA assay, competitive binding to Bcl-2 protein (biotin-Bim/streptavidin plate); conditions: method calculates average IC50, read-out: Bcl-2 binding constants
Method: (§1) The present inventors used fluorescence polarization assay to detect the bonding force between the protein and the compounds in a previous study (PCT/CN2010/075521). […] ELISA assay was used to detect the bonding force between the compounds and the protein in this application.
(§2) Biotinylated Bim peptide was diluted to 0.09 μg/mL in SuperBlock blocking buffer in PBS and incubated for 1.5 h in 96-well microtiter plates already coated with streptavidin to allow the formation of the complex between Biotin-Bim and streptavidin. All incubations were performed at room temperature unless otherwise noted. Each inhibitor was first dissolved in pure DMSO to obtain a 10 mM stock solution. For each tested inhibitor, different concentrations of the inhibitor were incubated with 20 nM His-tagged Mcl-1 protein in PBS for 1 h with a final DMSO concentration of 4%. The plates were washed three times with PBS containing 0.05% Tween-20. The inhibitor and protein mixture (100 μL) were transferred to the plate containing the biotin-Bim/streptavidin complex and incubated for 2 h. The plate was then washed as before and mouse anti-His antibody that conjugated with horseradish peroxidase was added into the wells and incubated for 1 h. The plate was then washed with PBS containing 0.05% Tween-20. Finally, TMB was added to each well; the enzymatic reaction was stopped after 30 min by addition of H2SO4 (100 μL, 2M). Absorbances were measured with a TECAN GENios (Swiss, TECAN) microplate reader using a wavelength of 450 nm. Three independent experiments were performed with each inhibitor to calculate average IC50 value and standard deviation (SD).
(§3) The BH3 analogous degrees of other 11 compounds were detected by using the experimental method as described above. The protein binding constant (binding constant in table 1) between them and Bcl-2 and Mcl-1 proteins were also on nM grade.

[1] = biological target: T1, interaction between Bcl-2 and Bax (Homo sapiens, UniProt P10415); test: Intracellular FRET, Bcl-2-CFP/Bax-YFP in Hela cells; assay type: cell-based; conditions: for Time (time period after which the interaction between Bcl-2 and Bax was interfered): at the concentration given
T1 construct: expressed in transfected cells; host or cells: Hela cells
T1 sequence (P10415 whole entry): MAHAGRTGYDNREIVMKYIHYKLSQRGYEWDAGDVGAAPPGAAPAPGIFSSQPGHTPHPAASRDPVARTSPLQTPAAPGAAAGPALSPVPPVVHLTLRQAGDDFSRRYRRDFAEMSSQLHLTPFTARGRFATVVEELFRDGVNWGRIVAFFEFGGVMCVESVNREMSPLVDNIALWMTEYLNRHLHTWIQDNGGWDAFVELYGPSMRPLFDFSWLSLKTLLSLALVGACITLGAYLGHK
Method: 2 μg of Bcl-2-CFP and Bax-YFP plasmids were transfected separately or simultaneously into Hela cells by using calcium phosphate coprecipitation method, 24 hours later, the cells were inoculated in a 6-well plate (2×10^5 cells/well), and the compound 1 to be detected dissolved in DMSO was added there into until the final concentration (2, 5, 10 and 15 μM) was achieved. 24 hours later (please refer to FIG. 5); the cells were washed with PBS for three times. The fluorescence value was detected by GENIOS fluorescence enzyme-labelled meter (TECAN, Swiss). In time-dependent experiment, the transfected cells were inoculated in a 6-well plate, after that, 40 μM of the compound was added thereinto. 3, 6 and 24 hours later (FIG. 6), the fluorescence intensities were detected by plate reader. As for the cell group in which only Bcl-2-CFP plasmid was transfected, the values at 475 nm emission wave length and 433 nm excitation wave length were recorded. As for the cell group in which only Bax-YFP plasmid was transfected, the values at 527 nm emission wave length and 505 nm excitation wave length were recorded. As for the cell group in which Bcl-2-CFP and Bax-YFP plasmids were co-transfected, the values at 527 nm and 475 emission wave lengths and 433 nm excitation wave length were recorded. The ratio of fluorescence intensity at 527 nm and 475 nm emission wave lengths was FRET. The FRET for the control group in which the plasmid was solely transfected was set as 1.0. […] In the cotransfected cells, the FRET increased up to 2.0 due to the interaction of Bcl-2 protein and Bax protein, and that the interference to the interaction between the two proteins increased and FRET decreased with the increase of the drug concentration and time. The cellular vitality was detected by MTT method. When the concentration of the compound reached 1 μM, the interaction between Bcl-2 and Bax can be interfered after 2 hours, and the results appeared concentration-time dependent trend.
Wherein the concentration and time meant that the detected compound interfered with the interaction between Bcl-2 and Bax at the concentration for the time period.

[2] = test system: MCF-7 cells transfected with BAX/BAK interfering plasmid; test: Cytotoxicity by MTT, cells transfected with BAX/BAK interfering plasmid; assay type: cell-based; conditions: Homo sapiens, MCF7; MCF-7 with BAX/BAK interfering plasmid, MTT, 48 hours
Method: (§4) 3 μg of BAX/BAK interfering plasmid was transfected into MCF-7 cells by using calcium phosphate coprecipitation method, 24 hours later, the cells were collected. The expressions after the BAX and BAK proteins interfered with RNA was detected by Western, and the cell groups without plasmid transfection were treated similarly and were set as the control group. The transfected cells were inoculated in a 96-well plate (1×10^5 cells/well), the control experiment of the cell group without plasmid transfection was carried out in parallel. The compound 1 to be detected was added thereinto according to the concentration gradient designed before the experiment. 48 hours later, the cellular vitality was detected by MTT. The experimental results were shown in FIG. 9, Gossypol as nonspecific BH3 analogue was treated in parallel.
(§5) Other 24 compounds were also detected by the same experimental method as described above, the differences of IC50 values between the transfected cells and the without plasmid transfection cells were compared.

MCF-7 cells = test: Cytotoxicity by MTT, cells without plasmid transfection; assay type: cell-based; conditions: Homo sapiens, MCF7; MCF-7, MTT, 48 hours; read-out: IC50 value in untransfected cells
Method: as §4, §5

[3] = test system: BAX shift towards the chondriosome; test: Co-localization between Bax protein and chondriosome, Bax-YFP in MCF-7 cells; assay type: cell-based; conditions: for Doses (concentration at which the compound drove the BAX to shift towards the chondriosome): Bax-YFP/Mito Tracker Red; for Time (time period after which BAX shifted towards the chondriosome): at the concentration given
Method: 5 μg of Bax-YFP plasmid was transfected into MCF-7 cells by using calcium phosphate coprecipitation method, 24 hours later, the cells were inoculated in a 6-well plate (0.2×10^6 cells/well), and 10 μM of the compound 1 to be detected was added thereinto. 6 hours later, the cells were washed with PBS and hatched away from light with 50 nM Mito Tracker Red CMXRos (chondriosome specific probes; red) for 10 minutes. Then the cells were washed with PBS for three times, and the fluorescent image was scanned with Radiance2000 laser confocal microscopy (Bio-Rad, USA). Meanwhile, dual channel scanning was carried out, one channel was used to scan the green fluorescence of Bax-YFP, and the other channel was used to scan the red fluorescence of the CMXRos probe for indicating the chondriosome. […] When the Bax protein was localized on the chondriosome, the green and red fluorescence was superimposed into orange, as shown in FIG. 7.
Other 24 compounds were detected by the same experimental method as described above. […] Wherein the concentration and time meant that the detected compound simulated the BH3-only protein and driven the BAX to shift towards the chondriosome at the concentration for the time period.

Mcl-1 = test: Western blotting, semiquantitative analysis of Mcl-1 protein bands; assay type: cell-based; conditions: control = 1, tumor cells
Method: (§6) The interest protein was detected by the corresponding antibody. The expression of the interest protein in the cells was detected by horseradish peroxidase-labeled secondary antibodies in combination with ECL coloration method. […] The concentration of the protein bands in the Western images were carried out semiquantitative analysis and normalization treatment with KODAK Gel Logic 1500 imaging system software.

His-tagged Mcl-1 protein = His-tagged Mcl-1 protein (Homo sapiens, UniProt Q07820); test: ELISA assay, competitive binding to Mcl-1 protein (biotin-Bim/streptavidin plate); conditions: 20 nM His-tagged Mcl-1, method calculates average IC50, read-out: Mcl-1 binding constants
Sequence of His-tagged Mcl-1 protein (Q07820 whole entry): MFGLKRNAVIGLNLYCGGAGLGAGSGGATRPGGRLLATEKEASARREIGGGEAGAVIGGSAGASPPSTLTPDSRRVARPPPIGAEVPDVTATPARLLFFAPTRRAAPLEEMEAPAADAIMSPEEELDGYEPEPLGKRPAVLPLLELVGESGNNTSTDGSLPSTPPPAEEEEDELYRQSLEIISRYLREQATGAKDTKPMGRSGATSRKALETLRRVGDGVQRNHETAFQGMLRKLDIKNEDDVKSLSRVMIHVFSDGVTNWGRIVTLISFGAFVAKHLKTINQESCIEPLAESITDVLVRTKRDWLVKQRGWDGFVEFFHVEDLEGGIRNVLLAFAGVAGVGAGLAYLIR
Method: as §1, §2, §3

Bcl-2 = test: Western blotting, semiquantitative analysis of Bcl-2 protein bands; assay type: cell-based; conditions: control = 1, tumor cells
Method: as §6

Sequence of Bcl-2 protein (P10415 whole entry, species assumed): as the sequence (P10415 whole entry) above

Row | SMILES | IC50 (Bcl-2 protein) [nM] | melting point [°C] | Doses (concentration at which the compound interfered with the interaction between Bcl-2 and Bax) [1] [µM] | Time (time period after which the interaction between Bcl-2 and Bax was interfered) [1] [h] | IC50 [2] [nM] | IC50 (MCF-7 cells) [nM] | Doses (concentration at which the compound drove the BAX to shift towards the chondriosome) [3] [µM] | Time (time period after which BAX shifted towards the chondriosome) [3] [h] | concentration of the protein bands (semiquantitative, normalized), Mcl-1 (Mcl-1; 2 h) | concentration of the protein bands (semiquantitative, normalized), Mcl-1 (Mcl-1; 6 h) | IC50 (His-tagged Mcl-1 protein) [nM] | concentration of the protein bands (semiquantitative, normalized), Bcl-2 (Bcl-2; 6 h) | concentration of the protein bands (semiquantitative, normalized), Bcl-2 (Bcl-2; 12 h) | concentration of the protein bands (semiquantitative, normalized), Bcl-2 (Bcl-2; 18 h) | concentration of the protein bands (semiquantitative, normalized), Bcl-2 (Bcl-2; 24 h)
1 | CCCCNC1=C2C(=NC1=O)c1cccc3c(N4CCSCC4)ccc2c13 [Compound 9, 9-Butylamino-3-thiomorpholin-4-yl-acenaphtho[1,2-b]pyrrol-8-one] | 63 | 239 to 240 | 0.4 | 2 | > 50000 | 1300 | 0.6 | 3 | 0.60 | 0.29 | 16 | 0.99 | 0.99 | 0.49 | 0.20
2 | CCCCNC1=C2C(=NC1=O)c1cccc3c(Oc4ccc(C(C)C)cc4)ccc2c13 [Compound 11, 9-Butylamino-3-(4-isopropyl-phenoxy)-acenaphtho[1,2-b]pyrrol-8-one] | 112 | 243 to 244 | 0.3 | 2 | > 50000 | 4200 | 0.9 | 3 | 0.70 | 0.34 | 46 | 0.99 | 0.99 | 0.57 | 0.22
3 | CCCCNC1=C2C(=NC1=O)c1cccc3c(Sc4ccc(Br)cc4)ccc2c13 [Compound 7, 3-(4-Bromo-phenylsulfanyl)-9-butylamino-acenaphtho[1,2-b]pyrrol-8-one] | 66 | 245 to 246 | 0.3 | 3 | > 50000 | 1200 | 0.5 | 3 | 0.68 | 0.32 | 14 | 0.99 | 0.99 | 0.51 | 0.20
4 | CCCCCCNC1=C2C(=NC1=O)c1cccc3cccc2c13 [Compound 2, 9-n-Hexylamino-acenaphtho[1,2-b]pyrrol-8-one] | 28 | 234 to 235 | 0.4 | 3 | > 50000 | 3500 | 0.5 | 3 | 0.70 | 0.31 | 25 | 0.99 | 0.99 | 0.50 | 0.19
